What all share (test): NCI tumour cell line growth inhibition, 48 h
For test [1], the system named is HOP-18 NSCLC.
Test [2] deals with XF 498 CNS.
Test [3] has as its system DMS 273 small cell lung.
Test [4] has as its system DMS 114 small cell lung.
For test [5], the system named is SNB-78 CNS.
For test [6], the system named is MDA-MB-231 breast.
The test system of test [7] is T-47D breast.
Test [8] has as its system MDA-N.

The structures appear in SMILES notation. “And” between values parts separate entries of the source, which are not always exact repeats. Identical values can stand only once.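 Exposure lasted 48 hours, with cells grown in 96-well plates and compounds tested at five concentrations. Here, GI50 denotes the concentration required for 50% inhibition of growth. TGI marks complete inhibition of growth.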

In the case of `O=C(O/N=C1/CCCC/C1=C\c1ccccc1)c1ccccc1`, the TGI was more than 100 µM in test [1], more than 100 µM in test [2], more than 100 µM in test [3] and 31.3 µM in test [4].
For the molecule `CC(=O)Nc1ccc(C(=O)NN2C(=O)C(Cl)C2c2ccccc2)cc1` (stereo not given), the TGI in test [3] and in test [5] was more than 100 µM in each case.
Turning to `O=c1c2ccccc2[se]n1-c1cccnc1`, the TGI in test [6] turned out to be 66.6 µM; in test [7] it was 57.3 µM; in test [8], 52.9 µM.
Regarding `CCOC(=O)Oc1c(OC)cc(C(=O)NC2CCc3cc(OC)c(OC)c(OC)c3-c3ccc(SC)c(=O)cc32)cc1OC` (stereo not given), the TGI is 0.896 µM in test [2]; more than 70 µM in test [3]; 0.0556 µM and < 0.007 µM in test [4]. For the same molecule, the GI50 in test [4] was less than 0.007 µM.
In the case of `C=C(CCCCC)CN1CCCC1[C@@](C)(O)CC(=O)OCC` (stereo not given in full), the TGI in test [1], in test [2], in test [3], in test [4] and in test [5] was more than 100 µM each time.
As for `C=C(C)C(CC=C(C)C)CC12CC(CC=C(C)C)C(C)(C)C(CC=C(C)C)(C(=O)C(Cc3ccc(O)c(O)c3)=C1O)C2=O` (stereo not given), the TGI in test [6], in test [7] and in test [8] was more than 100 µM in each case.
For `O=C1c2ccccc2C(=O)C1(Cl)C1(S(=O)(=O)O)c2ccccc2-c2ccccc21`, the TGI in test [1], in test [2], in test [3], in test [4] and in test [5] was more than 100 µM throughout.
Regarding `Cc1ccc(SC(C)/C=C/NNC2=NC(c3ccccc3)C(c3ccccc3)=NN2)cc1` (stereo not given), the TGI in test [1], in test [3], in test [4] and in test [5] was more than 100 µM throughout.
As to `CCCCOC(=O)C1C(c2ccc(Cl)cc2)NC(c2ccc(Cl)cc2)C(C(=O)OCCCC)S1(=O)=O` (stereo not given), the TGI in test [1], in test [2], in test [3] and in test [4] was more than 100 µM throughout.
As for `COc1ccc(C2S/C(=C\c3ccccc3O)C(=O)N2NC(=O)Cc2ccccc2)cc1` (stereo not given), the TGI in test [1], in test [3] and in test [4] was more than 100 µM each time.
As to `CCn1c(-c2cc(OC)cc(OC)c2)nc2c1C(=O)c1ccccc1C2=O`, the TGI in test [6], in test [7] and in test [8] was more than 100 µM each time.
Consider `COc1ccc(OC)c(NC(=O)C(=O)NNC(=O)c2sc(NNC(C)=O)nc2C)c1`, for which the TGI in test [2] was 85.3 µM; in test [5], more than 100 µM.
As for `COC(C)(C)C1=CCC(C)CC1` (stereo not given), in test [8], the TGI was more than 100 µM.
For `OCCN1CN(CCO)CN(c2nc(N3CN(CCO)CN(CCO)C3)nc(N3CN(CCO)CN(CCO)C3)n2)C1`, the figures for the GI50 in test [6] and in test [7] were 0.776 ng/mL and 1.06 ng/mL, respectively. Besides, the TGI in test [6] came out at 1.83 ng/mL; in test [7], 4.92 ng/mL.
Turning to `CCCCN(CCCC)CC(C(=O)Nc1ccc([N+](=O)[O-])cc1[N+](=O)[O-])/C(C)=N\NC(=S)NN` (stereo not given), the TGI in test [2], in test [3] and in test [4] was more than 100 µM throughout.
Take `CCN1CCN(c2ccc(Nc3cc(N(C)C(=O)Nc4c(Cl)c(OC)cc(OC)c4Cl)ncn3)cc2)CC1`: in test [6], the GI50 was 1.99 µM and the TGI was found to be 4.15 µM. Also, in test [7], the GI50 is 2.51 µM and the TGI came to 6.49 µM.
On to `CC1=CC(/C=C(\C)CCCc2ccoc2)C2(OC(=O)C(C)=C2O)[C@H]2C1CC[C@@H]2C` (stereo not given in full), for which the TGI was 82.6 µM in test [1], 72.2 µM in test [4] and 85.2 µM in test [5].
Regarding `O=[n+]1c2c(n([O-])c3ccccc31)CCCCCCCCCC2`, the TGI in test [2], in test [3] and in test [5] was more than 100 µM throughout.
As for `CC1OC2CC(=O)OC2C2=C1C(=O)c1c(O)cccc1C2=O` (stereo not given), in test [6], the GI50 is 0.0684 µM and the TGI amounted to 0.334 µM. In test [7], the GI50 was 0.106 µM and the TGI is 0.351 µM.
On to `COC(=O)C1=C(c2ccc3c(c2)OCO3)O[C@H](c2cc(OC)c(OC)c(OC)c2)[C@H]1COC(C)=O`, for which the TGI in test [1] was 60.9 µM; in test [2], 36.8 µM; in test [3] it was more than 100 µM; in test [4], 5.8 µM; in test [5] it was more than 100 µM.
As for `C=C(F)C(=O)N1CCN(c2nc(OC[C@@H]3CCCN3C)nc3c2CCN(c2cccc4cccc(Cl)c24)C3)C[C@@H]1CC#N`, the GI50 is 0.752 µM in test [6] and 1.24 µM in test [7]. Also, the TGI stood at 2.23 µM in test [6] and 3.07 µM in test [7].
Take `CNCCNc1c2c(c(NCCNC)c3c(CN(C)C)c[nH]c13)C(=O)c1ccccc1C2=O`: in test [6], the GI50 was 0.486 µM and the TGI came to 8.31 µM. Moreover, in test [7], the GI50 was 32 µM and the TGI was more than 57.1 µM.
Turning to `Cc1nc2ccccc2c(=O)n1NC(=O)c1ccc(CS)cc1`, the TGI in test [6] turned out to be 84.6 µM; in test [7], 87.6 µM.
In the case of `CC(=O)O.CC(=O)O.CC(=O)O.CC(=O)O.CC(=O)O.CC(=O)O.O.[Ti].[Ti]`, the GI50 in test [1], in test [3] and in test [5] was more than 100 µM in each case. The TGI in test [1], in test [3] and in test [5] was more than 100 µM in each case.
`O=C(CCCn1ccnc1[N+](=O)[O-])NCCn1cncc1[N+](=O)[O-]`: the TGI in test [6], in test [7] and in test [8] was more than 100 µM throughout.
As to `CC(C)c1ccc(Nc2ccc3c(OCCCN4CCN(C)CC4)cccc3n2)cc1`, the GI50 in test [6] was 2.11 µM; in test [7], 12.9 µM. Further, the results for the TGI in test [6] and in test [7] were 6.92 µM and 31.6 µM, respectively.
For the molecule `C/C(=C\CCc1ccoc1)CC/C=C(\C)CCCC1=CC(=O)OC1`, in test [6], the GI50 is 5.97 µM and the TGI came out at 28.9 µM. For the same molecule, in test [7], the GI50 was 2.27 µM and the TGI stood at 22.9 µM.
The like results for `COc1cc(Nc2cn[nH]c2-c2ccc(Cl)cc2)cc(OC)c1OC` were, in that order, 6.79 µM, more than 90.3 µM, 4.56 µM and 56 µM.
As for `Cc1ccc(S(=O)(=O)NCC2CCCCC2=O)cc1` (stereo not given), the TGI in test [1], in test [2], in test [3], in test [4] and in test [5] was more than 100 µM each time.
Turning to `Cc1c2cccnc2c(C)c2c1c1cc(CO)ccc1n2C`, in test [6], the GI50 is 2.61 µM and the TGI was 13.2 µM. Besides, in test [7], the GI50 is 0.989 µM and the TGI amounted to 4.97 µM.
Consider `CC(C)(C)OC(=O)NCC(=O)OCc1ccccc1`, for which the TGI in test [2], in test [3], in test [4] and in test [5] was more than 100 µM throughout.
`C/C1=C\CC[C@@]2(C)O[C@@H]2[C@H]2OC(=O)[C@@H](CN(C)C)[C@@H]2CC1`: in test [6], the GI50 was 14.2 µM and the TGI was 34.6 µM. For the same molecule, in test [7], the GI50 was 39.4 µM and the TGI is more than 100 µM.
`COc1ccc2c(c1)C(C)Cc1c(Cl)ncnc1N2C` (stereo not given): in test [6], the GI50 was 0.365 µM and the TGI was 2.35 µM. Further, in test [7], the GI50 was 2.02 µM and the TGI worked out at 20.5 µM.
The like results for `Clc1coc2nc3ccccc3c(Nc3ccc4c(c3)OCO4)c12` were, in that order, 0.974 µM, 81.3 µM, 13.4 µM and more than 100 µM.
As to `CC[C@]12C=CCN3CC[C@@]4(c5ccc(OC)cc5N(C)[C@H]4[C@@](O)(C(=O)OC)[C@@H]1OC(=O)CCC[P+](c1ccccc1)(c1ccccc1)c1ccccc1)[C@@H]32`, in test [6], the GI50 is 0.467 µM and 0.525 µM; the TGI is 1.85 µM and 2.25 µM. Further, in test [7], the GI50 was 0.29 µM and 0.224 µM; the TGI is 6.56 µM and 0.977 µM.
`COc1ccc(C(=O)c2cc(OC)c(C)c(OC)c2)cc1OC(=O)CCl`: the GI50 in test [6] was 0.353 µM; in test [7] it was 3.26 µM. Moreover, the TGI was 18.6 µM in test [6] and more than 79 µM in test [7].
Regarding `Oc1ccc(Cl)cc1Cc1cc(Cl)cc(Cl)c1O`, in test [6], the GI50 was 7.92 µM and the TGI came out at 48.1 µM. For the same molecule, in test [7], the GI50 is 2.47 µM and the TGI is 8.68 µM.
As for `C=CC1CC12C(=O)C1OC2(C)C2C(=O)c3cc4ccccc4cc3C(=O)C12` (stereo not given), in test [6], the GI50 was 16 µM and the TGI turned out to be 46.4 µM. In addition, in test [7], the GI50 is 23.1 µM and the TGI is more than 100 µM.
The like results for `COCCOc1cc(F)c2c(Nc3ccc(NC(=O)Cn4cc(C(C)C)nn4)cc3)ncnc2c1` were, in that order, 41.6 µM, more than 100 µM, 8.11 µM and more than 100 µM.

The values above are taken from PubChem BioAssay (NCI).
